Test results reported in publication PMC5551549 (Endocrinology, 2017).
Entries after “also recorded” stand apart in the source; their conditions may differ.

Key:
[1] = test system: human GCGR coexpressed with RAMP2; assay: PathHunter β-arrestin recruitment, CHO-K1-βArr-GCGR cells with RAMP2; format: cell-based; settings: 90 min, 37°C; PathHunter β-galactosidase complementation; minimum of four separate experiments; Emax P < 0.0001 with vs without RAMP2
From the text: PathHunter CHO-K1 GCGR β-Arrestin GPCR assay (DiscoveRx Corporation Ltd.) was used to determine the effect of RAMP2 on the potency of GCGR ligands for recruitment of β-arrestin-1 to the GCGR. The CHO-K1-βArr-GCGR cells are engineered to detect the interaction of β-arrestin with the activated GCGR using β-galactosidase fragment complementation. CHO-K1-βArr-GCGR cells were stably transfected with or without RAMP2, as described previously. […] Fifty-five microliters of the PathHunter detection reagents was added to each well, and the microplate was incubated at room temperature for 60 minutes.

CHO-K1-GCGR cells [2] = assay: Ca^2+ response to ATP (control), CHO-K1-GCGR cells; format: cell-based, Chinese hamster; settings: mean ± SEM; P = 0.77 vs RAMP2-expressing cells
Method: (§1) Cells, plated overnight onto 96-well plates at 50,000 cells/well, were incubated in 75 µL Ca NW^PLUS working reagent for 1 hour at 37°C. […] Fluorescence signal was measured from 5 seconds before to 30 seconds after injection of agonist. The Ca^2+ response was expressed as a percentage of the adenosine triphosphate response (1 µM).

[3] = test system: CHO-K1-GCGR cells + RAMP2; assay: Ca^2+ response to ATP (control), RAMP2-expressing CHO-K1-GCGR cells; format: cell-based, Chinese hamster; settings: mean ± SEM; P = 0.77 vs control cells
Method: as §1

CHO-K1-GCGR cells [4] = assay: cAMP response to forskolin (control), CHO-K1-GCGR cells; format: cell-based, Chinese hamster; settings: mean ± SEM; P = 0.20 vs RAMP2-expressing cells
Method: (§2) CHO-K1 cells overexpressing the human GCGR (with or without RAMP2), plated onto 48-well plates at 40,000 cells/well, were incubated in serum-free media for 1 hour. Peptides were prepared in serum-free DMEM containing 100 µM of IBMX (3-isobutyl-1-methylxanthine; Sigma-Aldrich, United Kingdom). The cells were incubated for 30 minutes with the test peptide, after which media were replaced with 110 µL lysis buffer (0.1M HCl with 0.5% Triton-X). The lysate was assayed by using a direct cyclic adenosine monophosphate ELISA kit (Enzo Life Sciences, United Kingdom), as described in the assay manual. The cyclic adenosine monophosphate (cAMP) response was corrected for well protein levels (Bradford reagent; Sigma-Aldrich) and expressed as a percentage of response to 10 µM forskolin.

[5] = test system: CHO-K1-GCGR cells + RAMP2; assay: cAMP response to forskolin (control), RAMP2-expressing CHO-K1-GCGR cells; format: cell-based, Chinese hamster; settings: mean ± SEM; P = 0.20 vs control cells
Method: as §2

SMILES: CC[C@H](C)[C@H](NC(=O)[C@H](Cc1ccccc1)NC(=O)[C@H](CCC(=O)O)NC(=O)[C@H](CCCCN)NC(=O)[C@H](C)NC(=O)[C@H](C)NC(=O)[C@H](CCC(N)=O)NC(=O)CNC(=O)[C@H](CCC(=O)O)NC(=O)[C@H](CC(C)C)NC(=O)[C@H](Cc1ccc(O)cc1)NC(=O)[C@H](CO)NC(=O)[C@H](CO)NC(=O)[C@@H](NC(=O)[C@H](CC(=O)O)NC(=O)[C@H](CO)NC(=O)[C@@H](NC(=O)[C@H](Cc1ccccc1)NC(=O)[C@@H](NC(=O)CNC(=O)[C@H](CCC(=O)O)NC(=O)[C@H](C)NC(=O)[C@@H](N)Cc1c[nH]cn1)[C@@H](C)O)[C@@H](C)O)C(C)C)C(=O)N[C@@H](C)C(=O)N[C@@H](Cc1c[nH]c2ccccc12)C(=O)N[C@@H](CC(C)C)C(=O)N[C@H](C(=O)N[C@@H](CCCCN)C(=O)NCC(=O)N[C@@H](CCCNC(=N)N)C(N)=O)C(C)C [GLP-1]
- β-arrestin recruitment in cells expressing both GCGR and RAMP2 [1]: did not occur; also recorded: completely abolished

SMILES: Nc1ncnc2c1ncn2[C@@H]1O[C@H](COP(=O)(O)OP(=O)(O)OP(=O)(O)O)[C@@H](O)[C@H]1O [ATP, adenosine triphosphate]
- Ca^2+ response to ATP, control cells (CHO-K1-GCGR cells [2]): 1.81 ± 0.08 relative fluorescence unit fold increase from baseline
- Ca^2+ response to ATP, RAMP2-expressing cells [3]: 1.84 ± 0.10 relative fluorescence unit fold increase from baseline

SMILES: C=C[C@@]1(C)CC(=O)[C@]2(O)[C@@]3(C)[C@@H](O)CCC(C)(C)[C@@H]3[C@H](O)[C@H](OC(C)=O)[C@@]2(C)O1 [forskolin]
- cAMP response to forskolin, control cells (CHO-K1-GCGR cells [4]): 0.136 ± 0.01 relative absorbance units
- cAMP response to forskolin, RAMP2-expressing cells [5]: 0.140 ± 0.01 relative absorbance units
